PubChem BioAssay (NCI)
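Assay format: 96-well plates, 48-hour exposure. GI50 = concentration required for 50% inhibition of growth. TGI: concentration producing complete growth inhibition.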

Columns and labels:
Assay in all cases: inhibition of tumour cell growth, NCI panel, 48 h
EKVX NSCLC = tested on: EKVX NSCLC
HCC-2998 colon = tested on: HCC-2998 colon
MOLT-4 leukemia = tested on: MOLT-4 leukemia
SF-295 CNS = tested on: SF-295 CNS
SN12C renal = tested on: SN12C renal
U251 CNS = tested on: U251 CNS
UACC-257 melanoma = tested on: UACC-257 melanoma
UO-31 renal = tested on: UO-31 renal
MCF7 breast = tested on: MCF7 breast
PC-3 prostate = tested on: PC-3 prostate

SMILES | TGI (EKVX NSCLC) [µM] | TGI (HCC-2998 colon) [µM] | TGI (MOLT-4 leukemia) [µM] | TGI (SF-295 CNS) [µM] | TGI (SN12C renal) [µM] | TGI (U251 CNS) [µM] | TGI (UACC-257 melanoma) [µM] | TGI (UO-31 renal) [µM] | GI50 (HCC-2998 colon) [µM] | GI50 (MCF7 breast) [µM] | TGI (MCF7 breast) [µM] | GI50 (MOLT-4 leukemia) [µM] | GI50 (PC-3 prostate) [µM] | TGI (PC-3 prostate) [µM] | GI50 (SF-295 CNS) [µM] | GI50 (SN12C renal) [µM] | GI50 (U251 CNS) [µM] | GI50 (UACC-257 melanoma) [µM] | GI50 (UO-31 renal) [µM] | GI50 (EKVX NSCLC) [µM]
CC(=O)CC(=O)CCC(=O)Nc1cccc(C(F)(F)F)c1 | > 100 | > 100 | > 100 | > 100 | > 100 | > 100 | > 100 | > 100 | – | – | – | – | – | – | – | – | – | – | – | –
N#C/C(=C1\OC(=N)C(c2ccc(Cl)cc2Cl)C1=O)c1ccc(Cl)cc1Cl (stereo not given) | > 100 | – | > 100 | > 100 | > 100 | – | > 100 | > 100 | – | – | – | – | – | – | – | – | – | – | – | –
CC(=O)N(O)c1ccc(/C=C/c2ccccc2)cc1 | – | 3.76 | > 100 | 2.78 | 37.5 | 3.59 | 5.17 | 2.9 | 1.65 | 0.548 | > 100 | 2.27 | 2.32 | > 100 | 0.362 | 0.763 | 1.23 | 1.23 | 0.759 | –
COC(=O)c1cc([N+](=O)[O-])cc([N+](=O)[O-])c1Cl | 28.8 | 28.3 | – | 36.9 | 11 | 4.78 | 2.98 | 3.95 | 14.4 | 1.94 | 4.6 | – | 1.88 | 3.91 | 19.3 | 3.15 | 2.14 | 1.58 | 1.86 | 14.1
Cc1cc2c(c(=O)o1)C1=S(SC(c3ccccc3)=C1)S2 (stereo not given) | – | – | > 100 | 88 | > 100 | 57.2 | > 100 | 94.8 | – | – | > 100 | – | – | 65.1 | – | – | – | – | – | –
Cc1ccc(S(=O)(=O)NC(=O)OC23COCN2COC3)cc1 | > 100 | > 100 | – | > 100 | > 100 | > 100 | > 100 | > 100 | – | – | > 100 | – | – | > 100 | – | – | – | – | – | –
C=CC(=O)N[C@@H](/C=C/C(=O)OCC)Cc1ccc(-c2cc(Cl)cc(Cl)c2)cc1 | > 100 | 57.6 | > 100 | 83.5 | 26.7 | > 100 | – | 96.2 | 19.9 | 5.92 | 66.4 | 7.14 | – | – | 13.5 | 8.04 | 17.2 | – | 4.42 | 11.2
CC1CCC2(C)C(CC=C(C=O)C2(O)C=O)C12CO2 (stereo not given) | 23.3 | 11.3 | 5.83 | 13.9 | 8.59 | 9.37 | 3.79 | 5.69 | – | – | – | – | – | – | – | – | – | – | – | –
O=c1[nH]c(=S)[nH]c(-c2ccccc2)c1Cc1c(O)ccc2ccccc12 | 64.4 | – | > 100 | > 100 | > 100 | > 100 | 62.7 | 80.9 | – | – | > 100 | – | – | > 100 | – | – | – | – | – | –
